Values joined by “and” are separate entries in the source; they are usually repeats but may differ in a detail not shown here. Equal entries are not always repeated. Where two headings read alike, the source gives them in different places.
What was measured:
Rat P45017α = target: T1, Rat P45017α (Rattus norvegicus, UniProt P11715); assay: Inhibition of rat testicular microsomal P45017α (lyase activity); assay type: biochemical; settings: for IC50 / Inhibition of rat testicular P45017α, in words: rat testicular microsomes; for IC50: mean ± SDM of at least two experiments, read-out: Rat P45017α IC50
T1 sequence (P11715 1-507): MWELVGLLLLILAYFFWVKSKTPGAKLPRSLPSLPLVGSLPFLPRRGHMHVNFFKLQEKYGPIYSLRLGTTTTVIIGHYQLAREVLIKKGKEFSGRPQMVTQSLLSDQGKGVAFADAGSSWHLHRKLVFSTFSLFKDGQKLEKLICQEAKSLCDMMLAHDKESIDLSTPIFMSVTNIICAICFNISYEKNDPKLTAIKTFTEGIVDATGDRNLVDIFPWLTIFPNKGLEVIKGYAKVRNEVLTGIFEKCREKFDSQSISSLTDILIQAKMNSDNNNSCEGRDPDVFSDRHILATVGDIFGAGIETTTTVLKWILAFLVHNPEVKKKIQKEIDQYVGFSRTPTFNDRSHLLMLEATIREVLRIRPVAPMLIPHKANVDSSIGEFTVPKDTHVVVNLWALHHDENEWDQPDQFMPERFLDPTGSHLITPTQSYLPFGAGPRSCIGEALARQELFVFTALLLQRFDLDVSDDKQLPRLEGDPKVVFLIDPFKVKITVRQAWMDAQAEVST
Method: (§1) The microsomes were stored at −70° C. until assayed. Just before use, the thawed microsomes were diluted with 0.1 M phosphate buffer (pH 7.4) to appropriate concentrations.
(§2) This assay measures only the lyase activity of the P45017α enzyme.
(§3) IC50 values for inhibitors were calculated from the linear regression line in the plot of logit of lyase activity versus log of inhibitor concentration. […] Each inhibitor was examined at three concentrations.

Human P45017α = target: T2, Human P45017α (Homo sapiens, UniProt P05093); assay: Inhibition of human testicular microsomal P45017α (lyase activity, release of C3H3COOH from [21-3H3]-17α-hydroxypregnenolone); assay type: biochemical
T2 construct: Human testicular microsomes were prepared from human testes; from tissue; host or cells: human testes (untreated prostatic cancer patients undergoing orchidectomy), microsomal fraction
T2 sequence (P05093 1-508): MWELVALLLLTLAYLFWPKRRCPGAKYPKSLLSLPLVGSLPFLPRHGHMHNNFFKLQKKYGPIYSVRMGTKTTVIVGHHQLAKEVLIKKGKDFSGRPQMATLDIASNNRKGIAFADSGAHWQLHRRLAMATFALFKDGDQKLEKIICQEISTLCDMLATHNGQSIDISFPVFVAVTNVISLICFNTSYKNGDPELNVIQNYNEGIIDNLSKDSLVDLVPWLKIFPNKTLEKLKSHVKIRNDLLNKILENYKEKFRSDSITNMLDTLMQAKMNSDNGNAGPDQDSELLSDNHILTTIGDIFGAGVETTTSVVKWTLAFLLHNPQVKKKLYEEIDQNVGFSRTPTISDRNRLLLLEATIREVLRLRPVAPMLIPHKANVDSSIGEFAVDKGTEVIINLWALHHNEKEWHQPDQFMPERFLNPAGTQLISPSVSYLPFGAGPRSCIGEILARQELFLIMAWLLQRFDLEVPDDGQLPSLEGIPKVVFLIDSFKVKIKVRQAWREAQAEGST
Method: as §1, §2, §3

[1] = target: T3, human prostate 5α-reductase (Homo sapiens, UniProt P31213); assay: Inhibition of human prostate 5α-reductase in BPH microsomes (conversion of [7-3H]-testosterone to DHT); assay type: biochemical; settings: for Inhibition of 5α-reductase, in words: human prostate enzyme
T3 construct: The enzymatic reactions were initiated by addition of human BPH microsomes; from tissue; host or cells: human benign prostatic hyperplasia (BPH) tissue, microsomal fraction
T3 sequence (P31213 1-254): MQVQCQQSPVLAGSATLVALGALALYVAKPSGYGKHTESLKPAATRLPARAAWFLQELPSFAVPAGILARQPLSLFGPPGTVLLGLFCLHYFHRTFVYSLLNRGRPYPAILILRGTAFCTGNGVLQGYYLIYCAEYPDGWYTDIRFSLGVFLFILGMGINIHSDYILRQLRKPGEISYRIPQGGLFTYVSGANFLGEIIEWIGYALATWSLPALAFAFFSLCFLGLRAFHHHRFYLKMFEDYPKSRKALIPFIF
Method: […] The ethanol was evaporated to dryness under a gentle stream of air. […] The enzymatic reactions were initiated by addition of human BPH microsomes (about 180 μg of microsomal protein in 500 μl of phosphate buffer) in a total volume of 1.0 ml, and the incubations were performed for 10 min under oxygen in a shaking water bath at 37° C. The incubations were terminated by placing the sample tubes on ice and the addition of ether. Also, [^14C]-DHT (3000 dpm) and cold DHT (50 μg) were added to each tube as an internal standard and visualization marker, respectively. The steroids were extracted with ether and separated by TLC (chloroform:ether, 80:20) and visualized by exposure to iodine vapor. The extracts were analyzed for ^3H and ^14C using a liquid scintillation counter. The percentage conversion of [7-^3H]-testosterone to [^3H]-dihydrotestosterone was calculated and used to determine 5α-reductase activity.

[2] = from IC50 values, rat vs human testicular microsomes
[3] = human BPH microsomes, mean ± SDM of at least two experiments, read-out: 5α-Reductase IC50
[4] = human testicular microsomes, mean ± SDM of at least two experiments, read-out: Human P45017α IC50

With CC(=O)O[C@H]1CC[C@@]2(C)C(=CC[C@@H]3[C@@H]2CC[C@]2(C)C(n4ncnn4)=CC[C@@H]32)C1 the melting point was 155 to 156 °C.

Molecule CC(=O)O[C@H]1CC[C@@]2(C)C(=CC[C@H]3[C@@H]4CC[C@@H](n5cccn5)[C@@]4(C)CC[C@@H]32)C1 has a melting point of 238 to 240 °C.

In the case of CC(=O)N1CCN(c2ccc(OCC3COC(Cn4ccnc4)(c4ccc(Cl)cc4Cl)O3)cc2)CC1 (stereo not drawn) [Ketoconazole, reference compound], the “Decrease of potency towards the rat enzyme compared with human P45017α” value (Rat P45017α; [2]) is reported as “about 3 fold”, the IC50 (Rat P45017α) is reported as 209 ± 17 nM and the “Inhibition of human P45017α, in words” value (Human P45017α; human testicular microsomes) is reported as “strong inhibition”.

For C[C@]12CCC(=O)C=C1CC[C@@H]1[C@@H]2CC[C@]2(C)C(n3cncn3)=CC[C@@H]12 [Compound 7, 17-(1H, 1,2,4-triazol-1-yl)androsta-4,16-diene-3-one], the “Increase of potency towards the rat enzyme compared with human P45017α” value (Rat P45017α; [2]) was 5 fold, the “Inhibition of rat testicular P45017α, in words” value (Rat P45017α) was “powerful inhibitors” and the IC50 (Rat P45017α) was 11 ± 3 nM. For the same molecule, the IC50 [1, 3] was 152 ± 10 nM, the “Inhibition of 5α-reductase, in words” value [1] was “potent inhibitors” and the “Inhibition of human P45017α, in words” value (Human P45017α; human testicular microsomes) was “powerful inhibitors”. The IC50 (Human P45017α; [4]) was 55 ± 11 nM.

CC(=O)O[C@H]1CC[C@@]2(C)C(=CC[C@@H]3[C@@H]2CC[C@]2(C)C(n4cccn4)=CC[C@@H]32)C1 showed a melting point of 159 to 161 °C.

With C[C@]12CC[C@H]3[C@@H](CCC4=CC(=O)CC[C@@]43C)[C@@H]1CC[C@@H]2n1ccnc1 [Compound 14, 17β-(1H-imidazol-1-yl)androst-4-ene-3-one] the IC50 [1] was 765 ± 100 nM and the IC50 (Human P45017α) was 36 nM.

For C[C@]12CC[C@H]3[C@@H](CC=C4C[C@@H](O)CC[C@@]43C)[C@@H]1CC[C@@H]2n1cncn1 [Compound 8, 3β-hydroxy-17β-(1H-1,2,4-triazol-1-yl)androst-5-ene], the melting point was 246 to 248 °C and the IC50 (Human P45017α; [4]) was 219 nM.

For C[C@]12CCC(=O)C=C1CC[C@@H]1[C@@H]2CC[C@]2(C)C(n3ccnc3)=CC[C@@H]12 [Compound 12, 17-(1H-imidazol-1-yl)androsta-4,16-diene-3-one], the “Increase of potency towards the rat enzyme compared with human P45017α” value (Rat P45017α; [2]) was “unchanged”, the “Inhibition of rat testicular P45017α, in words” value (Rat P45017α) was “powerful inhibitors” and the IC50 (Rat P45017α) was 8 ± 0.7 nM. The IC50 [1, 3] was 142 ± 5 nM, the “Inhibition of 5α-reductase, in words” value [1] was “potent inhibitors” and the IC50 (Human P45017α) was 7 ± 1 nM. The Ki (Human P45017α; Human P45017α Ki, from Lineweaver-Burk plots and slope replots, Km of 17α-hydroxypregnenolone 560 nM) was 1.8 nM and 1.9 nM and the “Inhibition of human P45017α, in words” value (Human P45017α; human testicular microsomes) was “powerful inhibitors”.

For C[C@]12CC[C@H]3[C@@H](CC=C4C[C@@H](O)CC[C@@]43C)[C@@H]1CC[C@@H]2n1ccnc1 [Compound 13, 3β-Hydroxy-17β-(1H-imidazol-1-yl)androst-5-ene], the melting point was 255 to 258 °C and the IC50 (Human P45017α) was 62 nM.

From patent US6444683B2, “17-azolyl steroids useful as androgen synthesis inhibitors” (University of Maryland at Baltimore, priority 1997, dated 2002)
